Consider one compound from patent publication US10028971B2, “Compositions and methods for treating psychiatric disorders” (GOSFORTH CENTRE (HOLDINGS) PTY LTD., priority 2008, dated 2018).

Like-named read-outs stand apart in the source and are kept apart here.

Test [1] deals with individuals with MCI or dementia. Briefly: Mild cognitive impairment and dementia, clinical cases (Developmental Eye Movement test, Alzheimer's Quick Test). It is filed as in vivo, human. The following applies: person. From the text: A married person with a history of good cognitive functioning until last 4-5 yrs when noted by both their spouse and themself to becoming increasingly socially withdrawn primarily because of the difficulty in listening without distraction during social interaction, no known childhood or adult history of prior attentional or impulsive disorders. It has been clinically observed by the inventor that individuals treated with low dose antiepileptic were enhanced in their ability to discriminate irrelevant from the relevant sound was enhanced. […] On ceasing the medication there was an initial improvement again over the preceding 3 to 7 days followed by a loss of the therapeutic effects and returned to their pre-medication function. On the ressumption of the 12.5 mg phenytoin there was a return of the improved function. On this second occasion they were more aware of the benefits and also the gradual return of the detrimental clinic effects. During the clinical assessment it was noted that they had more flexibility in their conversation and more natural use of non-verbal cues, there was also enhancement of their egocentric gaze. […] These benefits were also noted by their spouse. […] Again these medications were ceased resulting in a loss of associated benefits. With each trial of medication they became more apparent to the patient and their spouse of the benefits of the therapy. They attempted whilst not taking the medication to communicate and follow the conversation in a way that they had been able to whilst on treatment. They found when attempting to do so they became mentally exhausted and unable to sustain the effort required for the interaction. The improvements noted clinically and also recorded using the Developmental Eye Movement test and a measure of parietal function the Alzheimer's Quick Test. Married person diagnosed with fronto-temporal dementia. they had been assessed by neuropsychologist, and geriatrician and psychiatrist to confirm this diagnosis. […] They then relied on others to make decisions for […]. They had gradually become socially disengaged finding such interactions distressing and demanding. […] Despite ongoing difficulties of word finding they were able to socially interact more spontaneously than they had done for many years. And have confidence in areas of conversation that they previously would have avoided. […] On two occasions the medication was withdrawn and then reintroduced, due to the experimental nature of treatment and concern that there might be a significant placebo effect. […] Following the subsequent reduction there was a return of the improvement previously noted.

The subject of test [2] is individuals with sleep disorders. Briefly: Sleep disorders, clinical observation. Type of test: in vivo, human. The following applies: person, chronic insomnia, restless legs; sodium valproate added to dexamphetamine 25 mg.
Test [3] has as its system patients with substance addiction. Briefly: Treatment of addictions, clinical observation. It is filed as in vivo, human. The following applies: for clinical outcome (case): person. From the text:
Addiction to amphetamines poses a number of unique challenges.

Test [4] concerns individual with a history of a head injury. The test can be described thus: Head injury with acquired ADHD syndrome, clinical case. Type of test: in vivo, human. Particulars: person. From the text:
A person, no history of ADHD in childhood. Involved in a serious motor vehicle accident the with a depressed skull fracture and frontal lobe involvement. Subsequent history consistent with a acquired syndrome of ADHD. Subsequent development of co-morbid diagnoses included in alcohol dependence, pathological gambling and major depression.

For test [5], the system named is individuals with dysthymia. The test can be described thus: Treatment of dysthymia, clinical observation. It is filed as in vivo, human. Particulars: person, PTSD, treated ADHD, sodium valproate 100 mg a day. From the text:
The inventor has noted in the clinical setting that individuals suffering with symptoms consistent with a diagnosis of dysthymia, experience a significant abatement from their negative and sometimes intrusive thought patterns on commencement of a low dose anti-epileptic drug. The inventor has also noted in the clinic that the beneficial effects that are noted on commencement of this combination can be further enhanced synergistically, by the use of a psycho-stimulant. These individuals may or may not meet the full criteria for a DSM IV diagnosis consistent with ADHD.
A number of individuals with symptoms of dysthymia report that the depression has been present since adolescence, and finally present in the clinic, after an acute major depressive episode. They are able to achieve a partial resolution from the symptoms of depression with appropriate pharmacological and psychological treatment. Unfortunately, their negative thought patterns are more persistent and can be misinterpreted as a failure to adequately respond to antidepressant therapy. In actuality these symptoms predate the acute episode, and it is not surprising therefore that they don't abate following treatment. […] These subsequent outcomes lead to an improvement in general interpersonal functioning, which in itself contributes to psychosocial stability. […]

Test [6] relates to individuals with developmental dyspraxia / poor coordination. Briefly: Treatment of developmental dyspraxia, clinical observation. Type of test: in vivo, human. Particulars: person. From the text: Many of the individuals treated at this clinic, with a diagnosis of ADHD and/or pervasive development disorder such Asperger's Syndrome or autism also present with symptoms consistent with a diagnosis of a developmental coordination disorder. They are often described as ‘unco’ (unco-ordinated) by their peers and experience victimization, poor self-esteem and frustration as a consequence of their poor coordination. […] Individuals have described a sense of having more time to coordinate movements and to understand and integrate their own activity appropriately within a team sport such as soccer, which has previously eluded them. Individuals have felt frustration at being able to practise repeatedly an activity or skill only to be unable to put it into practice when required, within the play of a match. It is proposed that individuals were previously unable to process and plan their own coordination but remain aware of the general activity in which they were participating.

Test [7] concerns mood stabilisation or epileptic symptoms or events. Particulars: adults, cited from earlier work.
The subject of test [8] is adherence to medication regime. The following applies: person.
Excerpt: As a result, taking medication becomes an automatic activity which doesn't require a high level of attention and motivation.
The individual experiences an improvement in the ability to efficiently and effectively attend to a task in hand, without also needing to expend extra cognitive effort to remember which medication to take and at what times.

For the compound `CCCC(CCC)C(=O)O.[Na]` [sodium valproate, sodium di-n-propylacetic acid], the “clinical outcome (case)” value in test [1] (sodium valproate 40 mg) was “enhanced ability to follow the train of conversation”; in test [1] (sodium valproate 80 mg), “loss of these benefits”; in test [3] (methamphetamine use, 100 mg/d Valproate with 50 mg/d dexamphetamine), “robust improvement in attention and concentration abilities”; in test [3] (sodium valproate 50 mg increased to 200 mg with dexamphetamine) it was “reduced dependence on marijuana and ceased alcohol consumption”; in test [4] (sodium valproate 150 mg added to dexamphetamine 50 mg) it was “Improved social interaction and egocentric eye gaze”; in test [4] (sodium valproate above 150 mg), “loss of benefit”. For the same compound, the “clinical outcome (case)” value in test [5] was “could read without distraction”; in test [6] (ADHD, dexamphetamine 25 mg daily augmented with atomexetine 60 mg and sodium valproate 150 mg), “Significant improvement in psychosocial functioning”; in test [6] (Sodium valproate 50 mg increased to 100 mg with stimulant), “improved coordination, improved school attendance, improved cognition and report grades”; in test [8] (complex regime, no ADHD, ASD or dementia, Sodium valproate 100 mg added), “enhanced ability to track their thoughts with less effort”; in test [8] (sodium valproate reduced to 100 mg with dexamphetamine 40 mg), “improved efficacy, cognition, organisation and compliance with medication”. Further, the “clinical outcome on sleep (case)” value in test [2] is on record as “less effort was required to initiate sleep”. The clinical outcome in test [3] (two patients, ADHD and methamphetamine addiction, Valproate 50 to 100 mg/d with 50 mg/d dexamphetamine) was “responded well”. The “dose range in which control of symptoms of mania occurs” value was 1,000 to 2,000 mg/day in test [7] (mania (e.g. bipolar disorder), Epilim product information (Sanofi-Aventis)) and 20 to 30 mg/kg/day in test [7] (mania, Epilim product information).
